Data on 30 compounds can be found in US12473293B2, “Pharmacologically active heterocyclic-substituted pyrazolo[1,5-a]pyrimidine derivatives” (Richter Gedeon Nyrt., priority 2020, dated 2025).

One test concerns male Wistar rats. Briefly: Foot shock-induced ultrasonic vocalization (USV) in adult rats. The format is in vivo. Particulars: Rattus norvegicus, po, p.o., 1 h before shocking. How it is done: Foot Shock-Induced Ultrasonic Vocalization (USV) in Adult Rats
Under stressful conditions, adult rats emit 22 kHz ultrasounds that can be reduced by various pharmacological treatments (De Vry et al, Eur. J. Pharmacol. 1993, 249, 331-339; Sanchez, Eur. J. Pharmacol. 2003, 463, 133-143). […] Therefore, a foot shock-induced vocalization paradigm in adult rats was used to assess in vivo efficacy of centrally acting GABAB receptor ligands. Behavioral measurements were carried out on male Wistar rats (200-250 g, Toxicoop, Hungary or Janvier, France). Rats were housed in groups of four in plastic cages with a wire grid top in a temperature and light-controlled laboratory animal care unit (22±2° C., 12-h light/dark cycle, lights on at 6:00 AM) with ad libitum access to commercial pellet rat food and tap water. Investigations were approved by the Local Ethical Committee of Gedeon Richter Plc. and were carried out in strict compliance with the European Directive 2010/63/EU regarding the care and use of laboratory animals for experimental procedures and all efforts were made to minimize the number of animals as well as their suffering. In order to evoke emission of ultrasounds, animals were footshocked after a habituation period of 30 s (6 shocks, 1 s, 0.8 mA each, inter-shock interval 10 s) in a sound attenuated shocking chamber (Experimetria, 40×40×80 cm). […] Vocalizations were measured right after the last footshock for 10 min with a Metris Sonotrack system and the total time of vocalizations was registered. Vocalization of parallel vehicle treated animals was considered as control value and inhibition percent was calculated for each compound.
In Table 2 compounds of this invention measured in the USV assay are listed.

In the next test the target is T1, GABAB receptor (Rattus norvegicus, UniProt O88871+Q9Z0U4).
T1 construct: from tissue; host or cells: rat brain cortex membranes
Briefly: In vitro [35S]GTPγS binding assay in rat cortical membranes. The format is biochemical. Particulars: PAM EC50, [35S]GTPγS binding, read-out: In vitro PAM potency. The protocol:
In Vitro [^35S]GTPγS Binding Assay in Rat Cortical Membranes
Cortices of freshly harvested rat brains were dissected on an ice-cold surface and homogenized by a glass Dounce homogeniser immediately in ice-cold buffer containing 50 mM Tris, 5 mM MgCl2 and 1 mM EDTA (pH=7.6). Tissue homogenates were centrifuged at 40000 g for 15 min at 4° C. Membrane pellets were resuspended in the same buffer and membranes were incubated for 10 min at 30° C. in a shaking water bath to eliminate endogenous GABA. Homogenates were centrifuged again under the same conditions. The final pellets were resuspended in ice-cold buffer (pH=7.6) containing 50 mM Tris, 100 mM NaCl, 7 mM MgCl2, 1 mM EDTA and 1 mM dithiotreithol (DTT) to yield a concentration of 20 mg tissue weight/ml and frozen at −70° C. until use. The assay was done in a buffer containing 50 mM Tris (pH=7.4), 100 mM NaCl, 7 mM MgCl2, 1 mM EDTA and 1 mM DTT. Each assay tube contained 150 μL GDP (in a final concentration of 50 μM), 100 μL ligand and 125 μL of the membrane suspension ([…]). The assay tubes were preincubated for 10 min at 30° C. to assure equilibrium. Nonspecific binding was determined in the presence of 10 μM GTPγS; basal binding was determined in the presence of buffer only. After addition of […] [^35S]GTPγS in a volume of 25 μL to the tubes, membranes were incubated for an additional 60 min at 30° C. The assay was terminated by rapid filtration through Packard UniFilter GF/B using a Packard harvester and washed four times with 1 ml ice-cold buffer. After drying the filters at 40° C. for 1 h, 40 μL Microscint (Packard) was added to the filters and radioactivity of the filters was determined by a TopCount NXT (PerkinElmer, Waltham, MA; Alper and Nelson, Eur. J. Pharmacol. 1998, 343, 303-312; Rinken et al, Biochem. Pharmacol. 1999, 57, 155-162). Data thus gathered were used to determine PAM EC50 values for each compound as primary in vitro activity end point.
In Table 1 compounds of this invention measured in the [^35S]GTPγS binding assay are listed.

Counter-ions that a name gives are not always drawn.

T1 sequence (O88871 41-940): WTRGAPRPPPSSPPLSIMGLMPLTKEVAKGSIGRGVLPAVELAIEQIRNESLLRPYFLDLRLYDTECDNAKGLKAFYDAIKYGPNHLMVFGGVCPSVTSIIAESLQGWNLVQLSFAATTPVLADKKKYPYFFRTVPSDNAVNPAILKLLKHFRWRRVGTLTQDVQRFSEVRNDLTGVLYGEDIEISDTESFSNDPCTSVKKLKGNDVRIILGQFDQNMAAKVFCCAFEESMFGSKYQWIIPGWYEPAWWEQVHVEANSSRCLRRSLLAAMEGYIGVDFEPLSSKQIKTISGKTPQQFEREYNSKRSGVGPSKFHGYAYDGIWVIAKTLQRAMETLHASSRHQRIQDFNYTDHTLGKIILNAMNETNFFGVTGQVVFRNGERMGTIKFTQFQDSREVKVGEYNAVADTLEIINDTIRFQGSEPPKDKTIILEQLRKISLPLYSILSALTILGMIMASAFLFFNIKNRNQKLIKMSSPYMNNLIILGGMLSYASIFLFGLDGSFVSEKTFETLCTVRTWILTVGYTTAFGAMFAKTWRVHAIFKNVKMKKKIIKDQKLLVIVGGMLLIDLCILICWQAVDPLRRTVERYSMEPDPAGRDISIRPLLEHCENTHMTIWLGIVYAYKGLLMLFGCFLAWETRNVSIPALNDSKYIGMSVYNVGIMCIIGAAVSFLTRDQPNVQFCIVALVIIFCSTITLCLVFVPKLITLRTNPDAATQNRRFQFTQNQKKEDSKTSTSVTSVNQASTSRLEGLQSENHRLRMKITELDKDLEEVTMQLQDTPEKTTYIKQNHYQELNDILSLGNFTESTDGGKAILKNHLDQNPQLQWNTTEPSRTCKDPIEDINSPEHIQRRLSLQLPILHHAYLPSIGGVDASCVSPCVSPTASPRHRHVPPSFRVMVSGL
T1 sequence (Q9Z0U4 17-960 limits assumed): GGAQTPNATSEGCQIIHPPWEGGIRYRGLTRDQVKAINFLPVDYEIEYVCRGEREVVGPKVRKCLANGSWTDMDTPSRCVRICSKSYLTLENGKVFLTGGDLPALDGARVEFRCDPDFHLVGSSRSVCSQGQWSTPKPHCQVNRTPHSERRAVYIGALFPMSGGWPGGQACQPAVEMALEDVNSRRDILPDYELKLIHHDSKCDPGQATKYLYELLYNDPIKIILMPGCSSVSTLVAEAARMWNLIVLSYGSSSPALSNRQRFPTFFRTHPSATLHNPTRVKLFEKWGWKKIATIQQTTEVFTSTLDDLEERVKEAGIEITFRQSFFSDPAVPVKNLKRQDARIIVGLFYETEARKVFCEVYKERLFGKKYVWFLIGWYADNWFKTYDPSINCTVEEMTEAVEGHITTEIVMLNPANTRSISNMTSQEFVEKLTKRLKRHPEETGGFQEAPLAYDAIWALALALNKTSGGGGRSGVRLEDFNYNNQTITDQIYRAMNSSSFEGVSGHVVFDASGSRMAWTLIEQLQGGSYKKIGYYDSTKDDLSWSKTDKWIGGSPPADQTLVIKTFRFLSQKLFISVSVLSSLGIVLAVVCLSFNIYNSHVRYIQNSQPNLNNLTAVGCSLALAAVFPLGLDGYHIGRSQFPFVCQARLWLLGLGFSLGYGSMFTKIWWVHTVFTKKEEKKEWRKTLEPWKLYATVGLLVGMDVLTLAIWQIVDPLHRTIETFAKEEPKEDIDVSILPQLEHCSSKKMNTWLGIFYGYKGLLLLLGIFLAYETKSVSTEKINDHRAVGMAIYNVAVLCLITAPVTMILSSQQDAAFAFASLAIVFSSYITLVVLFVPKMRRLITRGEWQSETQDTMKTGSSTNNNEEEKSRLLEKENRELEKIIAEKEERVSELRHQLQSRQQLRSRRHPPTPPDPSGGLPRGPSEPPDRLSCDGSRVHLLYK

Turning to `CC(=O)N1CCC[C@H](c2c(C)c(C)nc3cc([C@H]4CC[C@H](C(F)(F)F)CC4)nn23)C1` [Example 43], the inhibition in vivo at 10 mg/kg with male Wistar rats was determined as 41%. For the same compound, the EC50 on GABAB receptor was in the range of 100 to 1000 nM.
`CCOC(=O)N1CCO[C@@H](c2cc(C)nc3cc([C@H]4CC[C@H](C(F)(F)F)CC4)nn23)C1` [Example 116]: the inhibition in vivo at 1 mg/kg with male Wistar rats is 0%. At GABAB receptor, the EC50 is 100 to 1000 nM.
`CC(=O)N1CCC[C@@H](c2cc(C)nc3cc([C@H]4CC[C@H](C(F)(F)F)CC4)nn23)C1` [Example 32] registered an inhibition in vivo at 3 mg/kg in the test on male Wistar rats of 68%. For the same compound, the EC50 at GABAB receptor lay in the range of 100 to 1000 nM.
In the test on male Wistar rats, `CCc1c(C)nc2cc([C@H]3CC[C@H](C(F)(F)F)CC3)nn2c1C1CN(C=O)CCO1` (some centres unmarked) [Example 82] had an inhibition in vivo at 1 mg/kg of 86%. Further, the EC50 at GABAB receptor is under 100 nM.
Turning to `COC(=O)N1CCC[C@@H](c2c(C)c(C)nc3cc([C@H]4CC[C@H](C(F)(F)F)CC4)nn23)C1` [Example 47], in the test on male Wistar rats, 10 mg/kg produced 63% inhibition in vivo. In addition, the EC50 on GABAB receptor lay in the range of 100 to 1000 nM.
For `CCc1c(C)nc2cc([C@H]3CC[C@H](C(F)(F)F)CC3)nn2c1[C@@H]1CCCN(C(C)=O)C1` [Example 39], in the test on male Wistar rats, the inhibition in vivo at 3 mg/kg was determined as 33%. In addition, at GABAB receptor, the EC50 lay within 100 to 1000 nM.
Turning to `CCc1c(C)nc2cc([C@H]3CC[C@H](C(F)(F)F)CC3)nn2c1[C@@H]1CN(C(C)=O)CC[C@@H]1C` [Example 66], at 1 mg/kg the inhibition in vivo with male Wistar rats was 49%. Also, the EC50 at GABAB receptor was under 100 nM.
For `CNC(=O)N1CCO[C@@H](c2cc(C)nc3cc([C@H]4CC[C@H](C(F)(F)F)CC4)nn23)C1` [Example 111], in that order: 44% and 100 to 1000 nM.
`COC(=O)N1CC[C@@H](C)[C@H](c2cc(C)nc3cc([C@H]4CC[C@H](C(F)(F)F)CC4)nn23)C1` (single isomer, unassigned) [Example 5] came in with an inhibition in vivo at 1 mg/kg with male Wistar rats of 88%. Further, the EC50 on GABAB receptor was under 100 nM.
For `COC(=O)N1CCO[C@@H](c2cc(C)nc3c(F)c([C@H]4CC[C@H](C(F)(F)F)CC4)nn23)C1` [Example 117], in that order: 73% and under 100 nM.
As to `COC(=O)N1CCO[C@@H](c2cc(C)nc3cc([C@H]4CC[C@H](C(F)(F)F)CC4)nn23)C1` [Example 91], at 1 mg/kg the inhibition in vivo in the test on male Wistar rats was 89%. Further, on GABAB receptor, the EC50 is under 100 nM.
For `Cc1nc2cc([C@H]3CC[C@H](C(F)(F)F)CC3)nn2c(C2CN(C=O)CC(F)(F)C2)c1C` (some centres unmarked) [Example 75], in that order: 19% and under 100 nM.
For `Cc1nc2cc([C@H]3CC[C@H](C(F)(F)F)CC3)nn2c([C@@H]2CN(C=O)CC[C@@H]2C)c1C` [Example 58], in that order: 44% and under 100 nM.
For `Cc1cc([C@H]2CN(C=O)CC[C@@H]2C)n2nc([C@H]3CC[C@H](C(F)(F)F)CC3)cc2n1` [Example 68], the inhibition in vivo at 1 mg/kg in the test on male Wistar rats came to 39%. The EC50 at GABAB receptor is under 100 nM.
For `Cc1cc([C@H]2CN(C(=O)c3cocn3)CCO2)n2nc([C@H]3CC[C@H](C(F)(F)F)CC3)cc2n1` [Example 113], in that order: 66% and 100 to 1000 nM.
In the test on male Wistar rats, `Cc1cc([C@H]2CN(C=O)CC[C@H]2C)n2nc([C@H]3CC[C@H](C(F)(F)F)CC3)cc2n1` (single isomer, unassigned) [Example 9] showed an inhibition in vivo at 1 mg/kg of 71%. In addition, at GABAB receptor, the EC50 is under 100 nM.
As for `COC(=O)N1CCO[C@@H](c2cc(C)nc3cc([C@H]4CC[C@H](C(C)(C)C)CC4)nn23)C1` [Example 132], in the test on male Wistar rats, testing at 1 mg/kg gave an inhibition in vivo of 65%. For the same compound, on GABAB receptor, the EC50 was under 100 nM.
With `COC(=O)N1CC[C@H](C)[C@@H](c2cc(C)nc3cc([C@H]4CC[C@H](C(F)(F)F)CC4)nn23)C1` (single isomer, unassigned) [Example 4], the EC50 at GABAB receptor was 100 to 1000 nM.
Turning to `Cc1cc([C@@H]2CN(C=O)CCO2)n2nc([C@H]3CC[C@H](C(F)(F)F)CC3)cc2n1` [Example 94], the EC50 on GABAB receptor lay in the range of 1000 to 10000 nM.
Take `COC(=O)N1CC[C@H](C)[C@H](c2c(C)c(C)nc3cc([C@H]4CC[C@H](C(F)(F)F)CC4)nn23)C1` [Example 77]: at GABAB receptor, the EC50 was under 100 nM.
With `CC(=O)N1CC[C@H](C)[C@H](c2cc(C)nc3c(F)c([C@H]4CC[C@H](C(F)(F)F)CC4)nn23)C1` (racemic) [Example 158], 3 mg/kg produced 35% inhibition in vivo in the test with male Wistar rats. The EC50 on GABAB receptor was 100 to 1000 nM.
Turning to `Cc1nc2cc([C@H]3CC[C@H](C(F)(F)F)CC3)nn2c([C@]2(C)CCCN(CC#N)C2)c1C` [Example 18, 2-[(3R)-3-{5,6-dimethyl-2-[trans-4-(trifluoromethyl)cyclohexyl]pyrazolo[1,5-a]pyrimidin-7-yl}-3-methylpiperidin-1-yl]acetonitrile hydrochloride], the EC50 on GABAB receptor lay in the range of 100 to 1000 nM.
The same measure, in the same setting: the value for `CC(=O)N1CCO[C@@H](c2cc(C)nc3cc([C@H]4CC[C@H](C(F)(F)F)CC4)nn23)C1` [Example 109] was 100 to 1000 nM.
Regarding `Cc1cc([C@@H]2CCCN(C(C)C)C2)n2nc([C@H]3CC[C@H](C(F)(F)F)CC3)cc2n1` [Example 24, (3R)-3-{5-methyl-2-[trans-4-(trifluoromethyl)cyclohexyl]pyrazolo[1,5-a]pyrimidin-7-yl}-1-(propan-2-yl)piperidine], the EC50 at GABAB receptor was in the range of 1000 to 10000 nM.
Same read-out and setting: the value for `COC(=O)N1C[C@@H](c2cc(C)nc3cc([C@H]4CC[C@H](C(F)(F)F)CC4)nn23)OC[C@@H]1C(C)C` [Example 122] was 100 to 1000 nM; that for `Cc1cc(C2CN(C=O)CCO2)n2nc([C@H]3CC[C@H](C(F)(F)F)CC3)cc2n1` (some centres unmarked) [Example 83] was 100 to 1000 nM.
Compound `Cc1cc([C@H]2CN(C(=O)N(C)C)CCO2)n2nc([C@H]3CC[C@H](C(F)(F)F)CC3)cc2n1` [Example 112] had an inhibition in vivo at 1 mg/kg with male Wistar rats of 72%. For the same compound, the EC50 at GABAB receptor was 100 to 1000 nM.
Turning to `CC(=O)N1CCOC(c2c(C)c(C)nc3cc([C@H]4CC[C@H](C(F)(F)F)CC4)nn23)C1` (some centres unmarked) [Example 70], the EC50 at GABAB receptor fell in the range of 100 to 1000 nM.
For the compound `COC(=O)N1CC[S+]([O-])C(c2cc(C)nc3cc([C@H]4CC[C@H](C(F)(F)F)CC4)nn23)C1` (some centres unmarked) [Example 17], the EC50 at GABAB receptor was in the range of 1000 to 10000 nM.
In the case of `CCc1c(C)nc2cc([C@H]3CC[C@H](C(F)(F)F)CC3)nn2c1[C@H]1CCCN(C(C)=O)C1` [Example 42], testing at 10 mg/kg in the test with male Wistar rats gave an inhibition in vivo of 91%. Besides, on GABAB receptor, the EC50 is under 100 nM.
